Measured values from PubChem BioAssay AID330 (DTP/NCI, 2004).
Values joined by “and” are separate entries in the source; they are usually repeats but may differ in a detail not shown here. Identical values can stand only once. Toxic doses and inconclusive results are not listed.

Tested on: P388 leukemia ip, CD2F1 mice, survival T/C
Test: NCI In Vivo Anticancer Drug Screen. Data for tumor model P388 Leukemia (intraperitoneal) in CD2F1 (CDF1) mice
Conditions: endpoint: median survival time, higher = longer survival
In short: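 Mice carrying the transplanted tumor received test compound or vehicle. Survival was recorded in each group, and the value is the treated-group measurement divided by that of the vehicle-treated control group.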

[1] = dose: 60.0 mg/kg/injection, schedule: Q01DX005 (ip), vehicle: saline with Tween-80
[2] = dose: 120.0 mg/kg/injection, schedule: Q01DX005 (ip), vehicle: saline with Tween-80
[3] = dose: 240.0 mg/kg/injection, schedule: Q01DX005 (ip), vehicle: saline with Tween-80
[4] = dose: 25.0 mg/kg/injection, schedule: Q01DX009 (ip), vehicle: saline with Tween-80
[5] = dose: 50.0 mg/kg/injection, schedule: Q01DX009 (ip), vehicle: saline with Tween-80
[6] = dose: 100.0 mg/kg/injection, schedule: Q01DX009 (ip), vehicle: saline with Tween-80
[7] = dose: 60.0 mg/kg/injection, schedule: Q01DX005 (ip), vehicle: Klucel (hydroxypropylcellulose) (HPC)
[8] = dose: 120.0 mg/kg/injection, schedule: Q01DX005 (ip), vehicle: Klucel (hydroxypropylcellulose) (HPC)
[9] = dose: 240.0 mg/kg/injection, schedule: Q01DX005 (ip), vehicle: Klucel (hydroxypropylcellulose) (HPC)
[10] = dose: 200.0 mg/kg/injection, schedule: Q01DX009 (ip), vehicle: saline with Tween-80
[11] = dose: 400.0 mg/kg/injection, schedule: Q01DX009 (ip), vehicle: saline with Tween-80
[12] = dose: 50.0 mg/kg/injection, schedule: Q01DX005 (ip), vehicle: Klucel (hydroxypropylcellulose) (HPC)
[13] = dose: 100.0 mg/kg/injection, schedule: Q01DX005 (ip), vehicle: Klucel (hydroxypropylcellulose) (HPC)
[14] = dose: 200.0 mg/kg/injection, schedule: Q01DX005 (ip), vehicle: Klucel (hydroxypropylcellulose) (HPC)
[15] = dose: 25.0 mg/kg/injection, schedule: Q01DX005 (ip), vehicle: saline with Tween-80
[16] = dose: 50.0 mg/kg/injection, schedule: Q01DX005 (ip), vehicle: saline with Tween-80
[17] = dose: 100.0 mg/kg/injection, schedule: Q01DX005 (ip), vehicle: saline with Tween-80
[18] = dose: 200.0 mg/kg/injection, schedule: Q01DX005 (ip), vehicle: saline with Tween-80
[19] = dose: 50.0 mg/kg/injection, schedule: Q01DX009 (ip), vehicle: Klucel (hydroxypropylcellulose) (HPC)
[20] = dose: 100.0 mg/kg/injection, schedule: Q01DX009 (ip), vehicle: Klucel (hydroxypropylcellulose) (HPC)
[21] = dose: 200.0 mg/kg/injection, schedule: Q01DX009 (ip), vehicle: Klucel (hydroxypropylcellulose) (HPC)

O=C(CN1CCC(O)(c2ccccc2)CC1)N1CCN(/C=C/c2ccccc2)CC1
T/C [1]: 100 % of control
T/C [2]: 104 % of control
T/C [3]: 91 % of control

Cn1c(CCCC(=O)O)nc2cc(N(CCCl)CCCl)ccc21
T/C (dose: 5.0 mg/kg/injection, schedule: Q01DX009 (ip), vehicle: saline sonified): 154 % of control
T/C (dose: 9.9 mg/kg/injection, schedule: Q04DX003 (ip), vehicle: saline with Tween-80): 150 % of control
T/C (dose: 10.0 mg/kg/injection, schedule: Q01DX009 (ip), vehicle: saline sonified): 168 % of control
T/C (dose: 22.5 mg/kg/injection, schedule: Q04DX003 (ip), vehicle: saline with Tween-80): 163 % of control

CC(=O)Nc1ccc(S(=O)(=O)/C(=C\c2ccc(Cl)o2)c2ccc([N+](=O)[O-])o2)cc1
T/C (dose: 50.0 mg/kg/injection, schedule: Q01DX009 (ip), vehicle: suspension in saline): 86 % of control
T/C (dose: 100.0 mg/kg/injection, schedule: Q01DX009 (ip), vehicle: suspension in saline): 88 % of control
T/C (dose: 200.0 mg/kg/injection, schedule: Q01DX009 (ip), vehicle: suspension in saline): 92 % of control

CN(C)CCNc1ccc(N)c2sc3ccccc3c(=O)c12
T/C [4]: 99 % of control and 92 % of control
T/C [5]: 100 % of control and 112 % of control and 93 % of control
T/C [6]: 112 % of control and 121 % of control

CCOC(=O)c1cnc2cc3c(cc2c1Nc1cccc(C)c1)OCO3
T/C [7]: 95 % of control
T/C [8]: 99 % of control
T/C [9]: 91 % of control

CN1C2=C(C#N)C(=C(C#N)C#N)NC2C(C)(C)c2ccccc21 (centres undefined)
T/C [5]: 96 % of control
T/C [6]: 88 % of control
T/C [10]: 92 % of control

CCCn1c(C)nc2cc(C(F)(F)F)cc([N+](=O)[O-])c21
T/C (dose: 15.0 mg/kg/injection, schedule: Q01DX005 (ip), vehicle: saline with Tween-80): 94 % of control
T/C (dose: 30.0 mg/kg/injection, schedule: Q01DX005 (ip), vehicle: saline with Tween-80): 99 % of control
T/C [1]: 101 % of control and 97 % of control
T/C [2]: 98 % of control
T/C [3]: 103 % of control

c1ccc2c(SCCOCCSc3c4ccccc4nc4ccccc34)c3ccccc3nc2c1
T/C [1]: 98 % of control
T/C [2]: 92 % of control
T/C [3]: 90 % of control

CN(C)c1ccc(C(=NNC(N)=S)c2ccc(N(C)C)cc2)cc1
T/C (dose: 12.5 mg/kg/injection, schedule: Q04DX003 (ip), vehicle: Klucel (hydroxypropylcellulose) (HPC)): 96 % of control
T/C (dose: 25.0 mg/kg/injection, schedule: Q04DX003 (ip), vehicle: Klucel (hydroxypropylcellulose) (HPC)): 105 % of control
T/C (dose: 50.0 mg/kg/injection, schedule: Q04DX003 (ip), vehicle: Klucel (hydroxypropylcellulose) (HPC)): 99 % of control and 108 % of control

O[C@@H]1CCC[C@@H]2O[C@H]12
T/C (dose: 100.0 mg/kg/injection, schedule: Q04DX002 (ip), vehicle: saline): 102 % of control
T/C (dose: 200.0 mg/kg/injection, schedule: Q04DX002 (ip), vehicle: saline): 103 % of control
T/C (dose: 400.0 mg/kg/injection, schedule: Q04DX002 (ip), vehicle: saline): 109 % of control

Cc1cccc(N=NC2Sc3nc4ccccc4n3C2=O)c1 (centres undefined)
T/C [7]: 89 % of control
T/C [8]: 91 % of control

CCOC(CNc1c[nH]c(=O)[nH]c1=O)OCC
T/C [5]: 100 % of control
T/C [6]: 100 % of control
T/C [10]: 103 % of control
T/C [11]: 100 % of control

CC(C)(C)C1=CC(CC(N)=O)(C(C)(C)C)OC1=O (centres undefined)
T/C [12]: 98 % of control
T/C [13]: 100 % of control
T/C [14]: 105 % of control

O=C(c1ccccc1)c1cccc(C(=O)c2ccccc2)c1
T/C [15]: 99 % of control
T/C [16]: 104 % of control
T/C [17]: 95 % of control
T/C [18]: 105 % of control

COc1ccc(C2OC3=Nc4cc(C)c(C)cc4NC3C2=O)cc1OC (centres undefined)
T/C [1]: 101 % of control
T/C [2]: 101 % of control
T/C [3]: 99 % of control

CN(C)C(=O)NC1CCC2CCCCC2C1 (centres undefined)
T/C (dose: 100.0 mg/kg/injection, schedule: Q01DX001 (ip), vehicle: saline): 100 % of control
T/C (dose: 200.0 mg/kg/injection, schedule: Q01DX001 (ip), vehicle: saline): 99 % of control
T/C (dose: 400.0 mg/kg/injection, schedule: Q01DX001 (ip), vehicle: saline): 98 % of control

CCOC(=O)C1=C(CC)NN=C(C)C1
T/C [16]: 105 % of control
T/C [17]: 103 % of control
T/C [18]: 100 % of control

O=C(C=Nc1ccc(Cl)c(Cl)c1)c1ccccc1
T/C [19]: 100 % of control
T/C [20]: 100 % of control
T/C [21]: 94 % of control

N#Cc1ccc(-c2nc3ncnc(N)c3[nH]2)cc1
T/C [7]: 92 % of control
T/C [8]: 90 % of control
T/C [9]: 91 % of control

Cn1c(N)nc2c([nH]c(=O)n2C2OC(CO)C(O)C2O)c1=O (centres undefined)
T/C [7]: 105 % of control
T/C [8]: 111 % of control
T/C [9]: 111 % of control

CCN(CCCNc1cc(OC)cc2cccnc12)C(C)C
T/C (dose: 3.12 mg/kg/injection, schedule: Q01DX005 (ip), vehicle: saline): 98 % of control
T/C (dose: 6.25 mg/kg/injection, schedule: Q01DX005 (ip), vehicle: saline): 92 % of control
T/C (dose: 12.5 mg/kg/injection, schedule: Q01DX005 (ip), vehicle: saline): 107 % of control

Cc1ccc2nc(N/N=C/c3cccnc3)sc2c1
T/C [19]: 105 % of control
T/C [20]: 100 % of control
T/C [21]: 96 % of control

COc1ccc(Oc2c(OC)cc(NCc3ccc(CN)cc3)c3ncccc23)cc1
T/C (dose: 12.5 mg/kg/injection, schedule: Q01DX009 (ip), vehicle: saline with Tween-80): 110 % of control
T/C [4]: 109 % of control
T/C [5]: 109 % of control

COC(=O)CC1CC(CCO)=C(C)C1=O (centres undefined)
T/C (dose: 60.0 mg/kg/injection, schedule: Q01DX005 (ip), vehicle: saline): 101 % of control
T/C (dose: 120.0 mg/kg/injection, schedule: Q01DX005 (ip), vehicle: saline): 99 % of control
T/C (dose: 240.0 mg/kg/injection, schedule: Q01DX005 (ip), vehicle: saline): 100 % of control

C1CSCCCSCCCSCCCSC1
T/C [19]: 100 % of control
T/C [20]: 99 % of control
T/C [21]: 100 % of control

Nc1cc2ccc3ncccc3c2c2cccnc12
T/C (dose: 100.0 mg/kg/injection, schedule: Q04DX003 (ip), vehicle: saline with Tween-80): 103 % of control
T/C (dose: 200.0 mg/kg/injection, schedule: Q04DX003 (ip), vehicle: saline with Tween-80): 97 % of control
T/C (dose: 400.0 mg/kg/injection, schedule: Q04DX003 (ip), vehicle: saline with Tween-80): 97 % of control

CC(C)(C)OC(=O)NC(CCCCNC(=O)OCC1c2ccccc2-c2ccccc21)C(=O)O (centres undefined)
T/C [12]: 103 % of control
T/C [13]: 99 % of control
T/C [14]: 103 % of control

C=CCN(CC=C)P(=O)(N(CC=C)CC=C)N(CC=C)CC=C
T/C [12]: 99 % of control
T/C [13]: 99 % of control

O=C1NC(=S)N/C1=C\c1ccc(Cl)c(Cl)c1
T/C [6]: 95 % of control
T/C [10]: 94 % of control
T/C [11]: 91 % of control

CN(Cc1cnc2nc(N)nc(N)c2c1)c1ccc(C(=O)NC(CCC(=O)O)C(=O)O)cc1 (centres undefined)
T/C (dose: 0.25 mg/kg/injection, schedule: Q01DX005 (ip), vehicle: other): 123 % of control
T/C (dose: 1.0 mg/kg/injection, schedule: Q01DX005 (ip), vehicle: other): 154 % of control
T/C (dose: 2.0 mg/kg/injection, schedule: Q01DX005 (ip), vehicle: other): 150 % of control and 170 % of control
T/C (dose: 4.0 mg/kg/injection, schedule: Q01DX005 (ip), vehicle: other): 166 % of control and 186 % of control and 197 % of control
T/C (dose: 6.0 mg/kg/injection, schedule: Q01DX005 (ip), vehicle: other): 197 % of control

CC1(C)N=C(N)N=C(N)N1c1ccc(OCCCOc2ccc(S(=O)(=O)F)cc2)c(Cl)c1
T/C (dose: 12.5 mg/kg/injection, schedule: Q04DX003 (ip), vehicle: saline): 120 % of control
T/C (dose: 25.0 mg/kg/injection, schedule: Q04DX003 (ip), vehicle: saline): 115 % of control

Nc1nc(N)nc(NCCSS(=O)(=O)O)n1
T/C [19]: 94 % of control
T/C [20]: 94 % of control
T/C [21]: 91 % of control

Cc1cc2nnc(-c3cccc([N+](=O)[O-])c3)n2c2nnnn12
T/C [15]: 100 % of control
T/C [16]: 102 % of control
T/C [17]: 98 % of control
T/C [18]: 100 % of control
